Measurements as given in patent publication US12655116B2, “Substituted isophthalic acid diamides” (Bayer Aktiengesellschaft, priority 2020, dated 2026).

How the values were obtained:
[1] = test system: VIOTR; experiment: Post-emergence herbicidal action against VIOTR; format: in vivo, Viola tricolor; conditions: Viola tricolor, 504 h
Method in brief: (§1)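 Herbicidal effect was scored visually in percent after about 3 weeks in the greenhouse. Plants had been raised in sandy loam and treated post-emergence at the one-leaf stage with formulated compound at 600 to 800 l/ha water plus 0.2% wetting agent.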

[2] = test system: AVEFA; experiment: Post-emergence herbicidal action against AVEFA; format: in vivo, Avena fatua; conditions: Avena fatua, 504 h, visual assessment about 3 weeks after treatment, 100% = plants have died, 0% = like control plants
Method in brief: as §1

[3] = test system: LOLRI; experiment: Pre-emergence herbicidal action against LOLRI; format: in vivo, Lolium rigidum; conditions: Lolium rigidum, 504 h, 320 g/ha
Method in brief: (§2)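 Herbicidal effect was assessed 3 weeks after treatment by visual comparison with untreated controls, 100% denoting dead plants. Aqueous WP or EC preparations had been applied at 600 to 800 l/ha with 0.2% wetting agent to the soil covering freshly sown seeds.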

[4] = test system: AMARE; experiment: Post-emergence herbicidal action against AMARE; format: in vivo, Amaranthus retroflexus; conditions: Amaranthus retroflexus, 504 h, visual assessment about 3 weeks after treatment, 100% = plants have died, 0% = like control plants
Method in brief: as §1

[5] = test system: ECHCG; experiment: Post-emergence herbicidal action against ECHCG; format: in vivo, Echinochloa crus-galli; conditions: Echinochloa crus-galli, 504 h; for pest or weed control at 80 g/ha: dosage 80 g/ha
Method in brief: as §1

[6] = test system: ALOMY; experiment: Pre-emergence herbicidal action against ALOMY; format: in vivo, Alopecurus myosuroides; conditions: Alopecurus myosuroides, 504 h, pre-emergence; for pest or weed control at 80 g/ha: scored visually after 3 weeks vs untreated controls (100% = plants have died, 0% = like control plants); for pest or weed control at 320 g/ha: scored visually after 3 weeks, 100% = plants have died, 0% = like control plants
Method in brief: as §2

[7] = test system: MATIN; experiment: Pre-emergence herbicidal action against MATIN; format: in vivo, Matricaria inodora; conditions: Tripleurospermum inodorum, 504 h; for pest or weed control at 20 g/ha: dosage 20 g/ha; for pest or weed control at 80 g/ha: dosage 80 g/ha; for pest or weed control at 320 g/ha: dosage 320 g/ha
Method in brief: as §2

[8] = test system: ABUTH; experiment: Pre-emergence herbicidal action against ABUTH; format: in vivo, Abutilon theophrasti; conditions: Abutilon theophrasti, 504 h; for pest or weed control at 80 g/ha: scored visually after 3 weeks vs untreated controls (100% = plants have died, 0% = like control plants); for pest or weed control at 320 g/ha: Dosage: 320 g/ha, scored visually after 3 weeks; for pest or weed control at 320 g/ha / pest or weed control at 20 g/ha: 100% = plants have died, 0% = like control plants; for pest or weed control at 20 g/ha: dosage 20 g/ha, scored visually after 3 weeks vs untreated controls, read-out: Pre-emergence action against ABUTH (herbicidal activity in percent)
Method in brief: as §2

[9] = test system: HORMU; experiment: Post-emergence herbicidal action against HORMU; format: in vivo, Hordeum murinum; conditions: Hordeum murinum, 504 h; for pest or weed control at 20 g/ha: dosage 20 g/ha; for pest or weed control at 80 g/ha: dosage 80 g/ha
Method in brief: as §1

[10] = test system: SETVI; experiment: Pre-emergence herbicidal action against SETVI; format: in vivo, Setaria viridis; conditions: Setaria viridis, 504 h; for pest or weed control at 80 g/ha: dosage 80 g/ha; for pest or weed control at 320 g/ha: dosage 320 g/ha
Method in brief: as §2

[11] = test system: AVEFA; experiment: Pre-emergence herbicidal action against AVEFA; format: in vivo, Avena fatua; conditions: Avena fatua, 504 h, pre-emergence; for pest or weed control at 320 g/ha: scored visually after 3 weeks, 100% = plants have died, 0% = like control plants
Method in brief: as §2

[12] = test system: VERPE; experiment: Post-emergence herbicidal action against VERPE; format: in vivo, Veronica persica; conditions: Veronica persica, 504 h, 80 g/ha
Method in brief: as §1

[13] = test system: ECHCG; experiment: Pre-emergence herbicidal action against ECHCG; format: in vivo, Echinochloa crus-galli; conditions: Echinochloa crus-galli, 504 h
Method in brief: as §2

[14] = test system: VERPE; experiment: Pre-emergence herbicidal action against VERPE; format: in vivo, Veronica persica; conditions: Veronica persica, 504 h, dosage 320 g/ha
Method in brief: as §2

[15] = test system: PHBPU; experiment: Post-emergence herbicidal action against PHBPU; format: in vivo, Pharbitis purpurea; conditions: Ipomoea purpurea, 504 h; for pest or weed control at 20 g/ha: dosage 20 g/ha; for pest or weed control at 80 g/ha: dosage 80 g/ha
Method in brief: as §1

[16] = test system: LOLRI; experiment: Post-emergence herbicidal action against LOLRI; format: in vivo, Lolium rigidum; conditions: Lolium rigidum, 504 h, dosage 80 g/ha
Method in brief: as §1

[17] = test system: STEME; experiment: Post-emergence herbicidal action against STEME; format: in vivo, Stellaria media; conditions: Stellaria media, 504 h; for pest or weed control at 5 g/ha: dosage 5 g/ha
Method in brief: as §1

[18] = test system: VIOTR; experiment: Pre-emergence herbicidal action against VIOTR; format: in vivo, Viola tricolor; conditions: Viola tricolor, 504 h; for pest or weed control at 80 g/ha: dosage 80 g/ha; for pest or weed control at 320 g/ha: dosage 320 g/ha
Method in brief: as §2

[19] = test system: HORMU; experiment: Pre-emergence herbicidal action against HORMU; format: in vivo, Hordeum murinum; conditions: Hordeum murinum, 504 h, pre-emergence
Method in brief: as §2

[20] = test system: AMARE; experiment: Pre-emergence herbicidal action against AMARE; format: in vivo, Amaranthus retroflexus; conditions: Amaranthus retroflexus, 504 h, 100% = plants have died, 0% = like control plants; for pest or weed control at 20 g/ha / pest or weed control at 80 g/ha: scored visually after 3 weeks vs untreated controls; for pest or weed control at 320 g/ha: scored visually after 3 weeks
Method in brief: as §2

[21] = test system: POLCO; experiment: Post-emergence herbicidal action against POLCO; format: in vivo, Polygonum convolvulus; conditions: Fallopia convolvulus, 504 h, dosage 80 g/ha
Method in brief: as §1

[22] = test system: STEME; experiment: Pre-emergence herbicidal action against STEME; format: in vivo, Stellaria media; conditions: Stellaria media, 504 h; for pest or weed control at 20 g/ha: dosage 20 g/ha; for pest or weed control at 80 g/ha: dosage 80 g/ha; for pest or weed control at 320 g/ha: dosage 320 g/ha
Method in brief: as §2

[23] = test system: MATIN; experiment: Post-emergence herbicidal action against MATIN; format: in vivo, Matricaria inodora; conditions: Tripleurospermum inodorum, 504 h; for pest or weed control at 5 g/ha: dosage 5 g/ha; for pest or weed control at 20 g/ha: dosage 20 g/ha; for pest or weed control at 80 g/ha: dosage 80 g/ha
Method in brief: as §1

Compound: CCCn1nnnc1NC(=O)c1ccc(C(F)(F)F)c(C(=O)NC)c1Cl [Example 3-129]
- pest or weed control at 5 g/ha ([1]; 5 g/ha): 80%
- pest or weed control at 20 g/ha [1]: 90%
- pest or weed control at 80 g/ha [1]: 100%
- pest or weed control at 20 g/ha [2]: 100%
- pest or weed control at 80 g/ha [2]: 100%
- pest or weed control at 320 g/ha [3]: 100%
- pest or weed control at 20 g/ha [4]: 100%
- pest or weed control at 80 g/ha [4]: 100%
- pest or weed control at 80 g/ha [5]: 100%
- pest or weed control at 80 g/ha [6]: 80%
- pest or weed control at 320 g/ha [6]: 100%
- pest or weed control at 20 g/ha [7]: 90%
- pest or weed control at 80 g/ha [7]: 100%
- pest or weed control at 320 g/ha [7]: 100%
- pest or weed control at 80 g/ha [8]: 100%
- pest or weed control at 320 g/ha [8]: 100%
- pest or weed control at 20 g/ha [8]: 100%
- pest or weed control at 20 g/ha [9]: 90%
- pest or weed control at 80 g/ha [9]: 100%
- pest or weed control at 80 g/ha [10]: 90%
- pest or weed control at 320 g/ha [10]: 100%
- pest or weed control at 80 g/ha [11]: 100%
- pest or weed control at 320 g/ha [11]: 100%
- pest or weed control at 80 g/ha [12]: 80%
- pest or weed control at 80 g/ha [13]: 80%
- pest or weed control at 320 g/ha [13]: 100%
- pest or weed control at 320 g/ha [14]: 100%
- pest or weed control at 20 g/ha [15]: 90%
- pest or weed control at 80 g/ha [15]: 100%
- pest or weed control at 80 g/ha [16]: 80%
- pest or weed control at 20 g/ha [17]: 100%
- pest or weed control at 80 g/ha [17]: 100%
- pest or weed control at 5 g/ha [17]: 100%
- pest or weed control at 20 g/ha ([18]; dosage 20 g/ha): 100%
- pest or weed control at 80 g/ha [18]: 100%
- pest or weed control at 320 g/ha [18]: 100%
- pest or weed control at 80 g/ha [19]: 90%
- pest or weed control at 320 g/ha [19]: 100%
- pest or weed control at 20 g/ha [20]: 100%
- pest or weed control at 80 g/ha [20]: 100%
- pest or weed control at 320 g/ha [20]: 100%
- pest or weed control at 80 g/ha [21]: 90%
- pest or weed control at 20 g/ha [22]: 90%
- pest or weed control at 80 g/ha [22]: 100%
- pest or weed control at 320 g/ha [22]: 100%
- pest or weed control at 5 g/ha [23]: 100%
- pest or weed control at 20 g/ha [23]: 100%
- pest or weed control at 80 g/ha [23]: 100%

Compound: CNC(=O)c1c(C(F)(F)F)ccc(C(=O)Nc2nnc(C)o2)c1Cl [Example 6-116]
- pest or weed control at 20 g/ha [1]: 80%
- pest or weed control at 80 g/ha [1]: 100%
- pest or weed control at 5 g/ha ([2]; 5 g/ha): 100%
- pest or weed control at 20 g/ha [2]: 100%
- pest or weed control at 80 g/ha [2]: 100%
- pest or weed control at 320 g/ha [3]: 100%
- pest or weed control at 20 g/ha [4]: 100%
- pest or weed control at 80 g/ha [4]: 100%
- pest or weed control at 20 g/ha ([5]; dosage 20 g/ha): 100%
- pest or weed control at 80 g/ha [5]: 100%
- pest or weed control at 80 g/ha [6]: 100%
- pest or weed control at 320 g/ha [6]: 100%
- pest or weed control at 20 g/ha [7]: 90%
- pest or weed control at 80 g/ha [7]: 90%
- pest or weed control at 320 g/ha [7]: 100%
- pest or weed control at 80 g/ha [8]: 100%
- pest or weed control at 320 g/ha [8]: 100%
- pest or weed control at 20 g/ha [8]: 100%
- pest or weed control at 20 g/ha [9]: 90%
- pest or weed control at 80 g/ha [9]: 100%
- pest or weed control at 80 g/ha [10]: 100%
- pest or weed control at 320 g/ha [10]: 100%
- pest or weed control at 80 g/ha [11]: 100%
- pest or weed control at 320 g/ha [11]: 100%
- pest or weed control at 80 g/ha [12]: 90%
- pest or weed control at 80 g/ha [13]: 100%
- pest or weed control at 320 g/ha [13]: 100%
- pest or weed control at 320 g/ha [14]: 80%
- pest or weed control at 5 g/ha ([15]; dosage 5 g/ha): 80%
- pest or weed control at 20 g/ha [15]: 80%
- pest or weed control at 80 g/ha [15]: 90%
- pest or weed control at 80 g/ha [16]: 90%
- pest or weed control at 20 g/ha [17]: 100%
- pest or weed control at 80 g/ha [17]: 100%
- pest or weed control at 5 g/ha [17]: 90%
- pest or weed control at 80 g/ha [18]: 100%
- pest or weed control at 320 g/ha [18]: 100%
- pest or weed control at 80 g/ha [19]: 90%
- pest or weed control at 320 g/ha [19]: 100%
- pest or weed control at 20 g/ha [20]: 100%
- pest or weed control at 80 g/ha [20]: 100%
- pest or weed control at 320 g/ha [20]: 100%
- pest or weed control at 80 g/ha [21]: 80%
- pest or weed control at 20 g/ha [22]: 90%
- pest or weed control at 80 g/ha [22]: 100%
- pest or weed control at 320 g/ha [22]: 100%
- pest or weed control at 5 g/ha [23]: 80%
- pest or weed control at 20 g/ha [23]: 90%
- pest or weed control at 80 g/ha [23]: 100%
